According to ChEMBL document CHEMBL1201862, “PubChem BioAssay data set” (2004):
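Each compound was tested at five concentrations against cells in 96-well plates for 48 hours. GI50 is the concentration that inhibits growth by half.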 Active and inactive are the calls of the source. Cut-off read from the data, not from the text of the source: active = GI50 up to about 1.1 µM and inactive = higher.

How the values were obtained:
Test in all cases: NCI-60 cell line screen, 48 h
NCI-H460 = test system: NCI-H460
HCT-116 = test system: HCT-116
SW-620 = test system: SW-620
DU-145 = test system: DU-145
Malme-3M = test system: Malme-3M
ACHN = test system: ACHN
RXF 393 = test system: RXF 393
HCC 2998 = test system: HCC 2998
SF-539 = test system: SF-539
UACC-257 = test system: UACC-257
Hs-578T = test system: Hs-578T
BT-549 = test system: BT-549
CAKI-1 = test system: CAKI-1
HL-60 = test system: HL-60
TK-10 = test system: TK-10
A498 = test system: A498
MDA-N = test system: MDA-N
786-0 = test system: 786-0
SNB-19 = test system: SNB-19
HOP-62 = test system: HOP-62

Measured: GI50

O=C(Cn1ccnc1[N+](=O)[O-])N(CCO)CCO
inactive: NCI-H460 > 1250 µM | HCT-116 > 250 µM | SW-620 > 250 µM | DU-145 > 250 µM | Malme-3M 135 µM | ACHN > 250 µM | RXF 393 > 250 µM | HCC 2998 > 250 µM | SF-539 > 250 µM | UACC-257 > 250 µM | Hs-578T > 250 µM | BT-549 > 250 µM | CAKI-1 > 250 µM | HL-60 > 250 µM | TK-10 > 250 µM | A498 > 1250 µM | MDA-N > 250 µM | 786-0 > 250 µM | SNB-19 > 250 µM | HOP-62 > 250 µM

Nc1nc(Cl)c(/C=N\O)c(NCC2(CO)CC(=O)C2)n1
inactive: NCI-H460 67.3 µM | HCT-116 88.7 µM | SW-620 89.1 µM | DU-145 77.4 µM | Malme-3M 33.7 µM | ACHN 62.1 µM | RXF 393 39.4 µM | HCC 2998 > 100 µM | SF-539 78.2 µM | UACC-257 58.3 µM | Hs-578T 18.7 µM | BT-549 51.5 µM | CAKI-1 75.3 µM | HL-60 5.33 µM | TK-10 > 100 µM | A498 34.4 µM | MDA-N 96.4 µM | 786-0 49.1 µM | SNB-19 > 100 µM | HOP-62 76.9 µM

CCOC1NC(/N=C/c2ccc(OC)cc2)=C(C#N)C1C#N (stereo not given)
inactive: NCI-H460 > 100 µM | HCT-116 63.1 µM | SW-620 50.9 µM | DU-145 > 100 µM | Malme-3M 90.8 µM | ACHN > 100 µM | RXF 393 34.5 µM | HCC 2998 > 100 µM | SF-539 93.8 µM | UACC-257 65.5 µM | Hs-578T 47.5 µM | BT-549 19.9 µM | CAKI-1 > 100 µM | HL-60 37.5 µM | TK-10 > 100 µM | A498 > 100 µM | MDA-N 49.2 µM | 786-0 > 100 µM | SNB-19 87.3 µM | HOP-62 > 100 µM

CCOP(=O)(C/C=C/Cn1nc(Br)c(=O)[nH]c1=O)OCC
inactive: NCI-H460 > 100 µM | HCT-116 > 100 µM | SW-620 > 100 µM | DU-145 > 100 µM | Malme-3M > 100 µM | ACHN > 100 µM | RXF 393 > 100 µM | HCC 2998 > 100 µM | SF-539 > 100 µM | UACC-257 > 100 µM | Hs-578T > 100 µM | BT-549 > 100 µM | CAKI-1 > 100 µM | HL-60 > 100 µM | TK-10 > 100 µM | A498 > 100 µM | MDA-N > 100 µM | 786-0 > 100 µM | SNB-19 > 100 µM | HOP-62 > 100 µM

Nc1n[n+]2cc(-c3ccccc3)n(CC(=O)c3ccccc3)c2s1
inactive: NCI-H460 > 100 µM | HCT-116 16.7 µM | SW-620 23.2 µM | DU-145 50.9 µM | Malme-3M 12.2 µM | ACHN 65.2 µM | RXF 393 20.4 µM | HCC 2998 15 µM | SF-539 20.1 µM | UACC-257 25.5 µM | Hs-578T 17 µM | BT-549 19.6 µM | CAKI-1 > 100 µM | HL-60 35.5 µM | TK-10 23.6 µM | A498 > 100 µM | MDA-N 34.4 µM | 786-0 20.5 µM | SNB-19 21.7 µM | HOP-62 24.8 µM

O=c1cc(N2CCOCC2)[nH]c(=O)n1-c1ccc(F)cc1
inactive: NCI-H460 > 100 µM | HCT-116 > 100 µM | SW-620 > 100 µM | DU-145 > 100 µM | Malme-3M > 100 µM | ACHN > 100 µM | RXF 393 > 100 µM | HCC 2998 > 100 µM | SF-539 > 100 µM | UACC-257 > 100 µM | Hs-578T > 100 µM | BT-549 > 100 µM | CAKI-1 > 100 µM | HL-60 > 100 µM | TK-10 > 100 µM | A498 > 100 µM | MDA-N > 100 µM | 786-0 > 100 µM | SNB-19 > 100 µM | HOP-62 > 100 µM
